Reference: article PMC3879368, “Characterisation of a Multi-ligand Binding Chemoreceptor CcmL (Tlp3) of Campylobacter jejuni” (PLoS Pathogens, 2014)
pKd: −log10 of the molar value. Where “and” joins values, the source holds several entries; their conditions need not be identical. Equal values may be shown once. Entries after “also recorded” stand apart in the source; their conditions may differ. Read-outs that look alike come from different tables or passages of the source.

What was measured:
[1] = system: recombinant Cj1564 (Tlp3) periplasmic sensory domain peptide; test: 1H STD-NMR analysis, single ligand and competition; type: binding, Campylobacter jejuni; settings: for STD-NMR binding to Tlp3 (in words): ligand alone with Tlp3; for Binding preference in competition STD experiments: two ligands together with Tlp3
Experimental: Recombinant Tlp3 (1 mg/mL, 100 µL) dissolved in D2O (99.99% D Cambridge Isotopes) containing 50 mM NaCl and 50 mM KH2PO4 and added to various ligands (1 mg/mL, 150 µL ∼150 mole equivalents) also dissolved in D2O (99.99% D Cambridge Isotopes) containing 50 mM NaCl and 50 mM KH2PO4 to give a total volume of 250 µL in a 3 mm NMR tube for NMR analysis. Control samples were prepared in an identical manner without Tlp3 added. All NMR experiments were performed on a Bruker Avance 600 MHz spectrometer, equipped with a 5-mm TXI probe with triple axis gradients at 283 K without sample spinning. ^1H NMR spectra were acquired with 32 scans, a 2 s relaxation delay over a spectral width of 6000 Hz. Solvent suppression of the residual HDO peak was achieved by continuous low-power presaturation pulse during the relaxation delay. […] A 100 µs delay between each soft pulse was applied, resulting in a total saturation time of 2 s and 2 K scans.
Data were obtained with an interspersed acquisition of pseudo-two-dimensional on-resonance and off-resonance spectra in order to minimize the effects of temperature and magnet instability. On- and off-resonance spectra were processed separately, and the final STD-NMR spectrum was obtained by subtracting the individual on- and off-resonance spectra, resulting in less subtraction artefacts. Relative STD effects were calculated according to the equation ASTD = (I0−Isat)/I0 = ISTD/I0 by comparing the intensity of the signals in the STD-NMR spectrum (ISTD) with signal intensities of a reference spectrum (I0). The STD signal with the highest intensity was set to 100% and other STD signals were calculated accordingly. A spin lock field of 10 ms was applied to remove unwanted background protein signals. […] Control STD-NMR experiments were performed using an identical experimental setup and the same ligand concentration but in the absence of the protein.

[2] = system: C. jejuni 11168-O Δtlp3; type: cell-based, Campylobacter jejuni; settings: for Increase in bacterial numbers around ligand plug, Δtlp3 compared to wild type: repellents; for Viable counts of C. jejuni associated with ligand plug: Δtlp3, plug with 2 mM ligand, 37°C, 4 h; for Reduction in bacterial numbers migrating towards ligand, Δtlp3 compared to wild type: attractants
[3] = system: recombinant Tlp3 periplasmic sensory domain peptide; test: Amino acid and small molecule array binding assay; design: species or system Campylobacter jejuni; key: Y: positive binding significantly above background; N: binding not significantly above background; settings: compounds covalently bound to an epoxide group
Experimental: (§1) The array assay presents the compounds covalently bound to an epoxide group resulting in a high probability of a single molecular orientation. The plate assay relies on non-covalent charge and hydrophobic/hydrophilic interactions for presentation of the molecules offering a different presentation to the array.
(§2) Amino acid and small molecule arrays and plate based binding assays were performed as previously described.. […] SPR experiments were performed using a Biacore T100 biosensor system (GE- healthcare) at 25°C in 1× PBS pH 7.2 at a flow rate of 30 µl/min. […] Amino acids were prepared in 1 × PBS pH 7.2 and serially diluted from 0.0125 to 0.2 mM. The amino acids were loaded to the sensor chip using single-cycle kinetics, i.e. after the injection of five amino acid dilutions the chip was regenerated with EDTA. Subsequently, the chip was re-loaded with Ni^2+ and His-Tlp3 before the injection of the next amino acid to be tested. A 10 min dissociation time was allowed after the addition of each analyte. SPR signals were analyzed using the Biacore Evaluation software to determine KD.

[4] = system: recombinant Tlp3 periplasmic sensory domain peptide; test: 96-well plate binding assay; design: species or system Campylobacter jejuni; key: Y: positive binding significantly above background; N: binding not significantly above background; settings: non-covalent presentation
Experimental: as §1, §2

[5] = system: C. jejuni 11168-O; type: cell-based, Campylobacter jejuni; settings: for Chemotactic response: nutrient depleted chemotaxis assay, 11168-O vs Δtlp3; for Chemotactic response: key: +: positive response (chemoattractant); −: negative response (chemorepellent)
[6] = target: His-Tlp3 (Campylobacter jejuni, UniProt Q0P864); test: biochemical; type: binding; settings: for SPR interaction with Tlp3 (in words): two-fold serial dilution between 12.5 and 200 µM
Experimental: as §2
All interactions present were tested with a two-fold serial dilution between 12.5 and 200 µM. (TIF) Click here for additional data file.

[7] = wild type 11168-O, plug with 2 mM ligand, 37°C, 4 h
[8] = Binding Affinity (KD), SPR, 25°C, 1× PBS pH 7.2

His-Tlp3, sequence (Q0P864 entry or part of it): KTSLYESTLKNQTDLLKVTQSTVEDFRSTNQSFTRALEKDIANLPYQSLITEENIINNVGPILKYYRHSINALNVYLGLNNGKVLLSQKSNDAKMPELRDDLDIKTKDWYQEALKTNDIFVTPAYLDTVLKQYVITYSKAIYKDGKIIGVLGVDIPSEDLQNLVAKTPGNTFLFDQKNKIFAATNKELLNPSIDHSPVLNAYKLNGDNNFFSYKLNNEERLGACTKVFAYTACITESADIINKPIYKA

SMILES	STD-NMR binding to Tlp3 (in words) ([1]; 283 K)	Increase in bacterial numbers around ligand plug, Δtlp3 compared to wild type [2] [log]	Viable counts of C. jejuni associated with ligand plug [2]	Array binding [3]	Plate assay [4]	Chemotactic response [5]	Viable counts of C. jejuni associated with ligand plug [5, 7]	Reduction in bacterial numbers migrating towards ligand, Δtlp3 compared to wild type [2] [log]	pKd [6, 8]	other results
N=C(N)NCCC[C@H](N)C(=O)O [Arginine]	Binding was observed	1	6.8 × 10^7 cfu/ml	N	Y	−	1.3 × 10^6 cfu/ml			Binding preference in competition STD experiments [1]: preferential binding of arginine over lysine
N[C@@H](CC(=O)O)C(=O)O [Aspartate]			3.7 × 10^3 cfu/ml	N	Y	+	7.8 × 10^6 cfu/ml	3		
O=C(O)/C=C/C(=O)O [Fumaric Acid]			9 × 10^2 cfu/ml		Y	+	4.14 × 10^6 cfu/ml	4		pKd [6]: < 2.00
N[C@H]1C(O)O[C@H](CO)[C@@H](O)[C@@H]1O (stereo partly shown) [Glucosamine]	No signals were detected	3	7.8 × 10^6 cfu/ml		Y	−	1.68 × 10^3 cfu/ml		5.11	Dissociation rate from Tlp3 (in words) ([6]; SPR): slow disassociation rates
CC[C@H](C)[C@H](N)C(=O)O [Isoleucine]	Binding was observed		3.6 × 10^2 cfu/ml	Y	Y	+	6 × 10^6 cfu/ml	4		Binding preference in competition STD experiments [1]: binds preferentially over arginine; also recorded: binds preferentially over lysine
NCCCC[C@H](N)C(=O)O [Lysine]	Binding was observed	2	2.4 × 10^5 cfu/ml	N	Y	−	2.2 × 10^3 cfu/ml		~5.55 and 5.55	Binding affinity of lysine relative to arginine, fold stronger ([6]; ratio of SPR KD values): ~14 fold
O=C(O)CC(O)C(=O)O (stereo not shown) [Malic Acid]	No signals were detected		1.13 × 10^3 cfu/ml		Y	+	9 × 10^5 cfu/ml	2		Dissociation rate from Tlp3 (in words) ([6]; SPR): slow disassociation rates
c1ncc2nc[nH]c2n1 [Purine]	Binding was observed		1.08 × 10^5 cfu/ml		Y	+	1.4 × 10^6 cfu/ml	1	4.42	STD effect of H2 protons, fold lesser than H6 ([1]; pyrimidine ring protons, 283 K): ~5 fold; Binding preference in competition STD experiments [1]: binds preferentially over lysine; also recorded: binds preferentially over arginine
O=C(O)CCC(=O)O [Succinic Acid]		1	2 × 10^7 cfu/ml		Y	−			4.48	Viable counts of C. jejuni associated with ligand plug [5]: 1.5 × 10^6 cfu/ml
Cc1ncc(C[n+]2csc(CCO)c2C)c(N)n1 [Thiamine]		1	9 × 10^6 cfu/ml		Y	−			> 4.30	Viable counts of C. jejuni associated with ligand plug [5]: 4 × 10^5 cfu/ml
C[C@H](N)C(=O)O [alanine]										SPR interaction with Tlp3 (in words) [6]: No interaction observed
NC(=O)C[C@H](N)C(=O)O [asparagine]										SPR interaction with Tlp3 (in words) [6]: No interaction observed
O=C(O)CCC(=O)C(=O)O [α-ketoglutarate]				Y	Y					pKd ([6]; SPR, 25°C, 1× PBS pH 7.2, read-out: Binding Affinity (KD)): 3.53; Chemotaxis assay outcome (in words) ([5]; data not shown): not definitive
